Like-named read-outs stand apart in the source and are kept apart here.
Columns and labels:
[1] = system: 3D7-strain P. falciparum asexual parasites; assay: P. falciparum asexual growth inhibition assay (Pf GIA); assay type: cell-based, Plasmodium falciparum; conditions: dose response confirmation; read-out: Pf asexual growth inhibition assays IC50
How it was run: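 Parasites at 0.25% parasitemia, 2% hematocrit in Albumax-supplemented RPMI were exposed to compounds in dose response for 72 h at 37°C under 5% CO2/5% O2. Viability was read as LDH activity (NBT/diaphorase, A650 after freeze-thaw). Percent inhibition was calculated against chloroquine and DMSO controls, mean of three biological replicates.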

HepG2 cells = assay: HepG2 cytotoxicity assay; conditions: for Pb ODA (this manuscript) HepG2 cytoxicity: HepG2 cytotoxicity listed with the Pb ODA data set (this manuscript); for IC50: read-out: HepG2 cytotoxicity assay IC50, dose response confirmation
How it was run: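 Here viability after a 48 h compound incubation (37°C, humidified 5% CO2) is measured by fluorescence and expressed as percent inhibition, with doxorubicin at 50 μM and DMSO as the bounding controls.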

[2] = system: P. berghei ookinete development; conditions: for % inhibition, Replicate A / % inhibition, Replicate B: primary screen at 1 μM
[3] = read-out: Pb ODA (this manuscript) IC50, P. berghei ookinete development assay, this manuscript
[4] = read-out: Pb Ookinete development assay IC50, dose response confirmation
[5] = HepG2 values of the three screens unified
[6] = read-out: Pb ODA IC50, this manuscript
[7] = unified HepG2 value across the three screens

Compound: Cc1noc(C)c1-c1ccc2c(Nc3ccc(Cl)cc3)c(C(N)=O)cnc2c1.Cl [TCMDC-136010]
- IC50 [1]: 53 nM
- Pb ODA (this manuscript) HepG2 cytoxicity (HepG2 cells): 4.84 µM
- IC50 (HepG2 cells): 4840 nM
- Is compound selective in assay? Pb ODA active? [2]: 0 (key: 1: YES; 0: NO)
- % inhibition, Replicate A [2]: 77.30%
- % inhibition, Replicate B [2]: 54.77%
- IC50 [2, 3]: 6660 nM
- IC50 [2, 4]: 6660 nM

Compound: Cc1[nH]c(C)c(-c2ccc(-c3ccccc3Cl)nc2)c(=O)c1Cl [TCMDC-136303]
- IC50 [1]: 248 nM
- Unified cytotox (HepG2 cells; [5]): 100.00 µM
- IC50 (HepG2 cells): 100000 nM
- Is compound selective in assay? Pb ODA active? ([2]; 1: YES, 0: NO): 1 (1: YES)
- % inhibition, Replicate A [2]: 118.12%
- % inhibition, Replicate B [2]: 98.57%
- IC50 [2, 6]: 230 nM
- IC50 [2, 4]: 229 nM

Compound: Cc1[nH]c(C)c(-c2ccc(-c3ccc(Cl)cc3)nc2)c(=O)c1Br [TCMDC-136159]
- IC50 [1]: 625 nM
- Unified cytotox (HepG2 cells; [5]): 100.00 µM
- IC50 (HepG2 cells): 100000 nM
- Is compound selective in assay? Pb ODA active? ([2]; 1: YES, 0: NO): 1 (1: YES)
- % inhibition, Replicate A [2]: 98.54%
- % inhibition, Replicate B [2]: 60.48%
- IC50 [2, 4]: 940 nM

Compound: Cl.Oc1cc(-c2nc(-c3ccccc3)[nH]c2-c2ccncc2)ccc1Cl [TCMDC-139660]
- IC50 [1]: 1790 nM
- Unified cytotox (HepG2 cells): 9.77 µM
- IC50 (HepG2 cells): 9770 nM
- Is compound selective in assay? Pb ODA active? [2]: 0 (key: 1: YES; 0: NO)
- % inhibition, Replicate A [2]: 79.35%
- % inhibition, Replicate B [2]: 69.44%
- IC50 [2, 6]: 1760 nM
- IC50 [2, 4]: 1760 nM

Compound: Cc1[nH]c(C)c(-c2csc3ccccc23)c(=O)c1Cl [TCMDC-136017]
- IC50 [1]: 2260 nM
- IC50 (HepG2 cells): 100000 nM
- Unified cytotox (HepG2 cells; [7]): 100.00 µM
- Is compound selective in assay? Pb ODA active? ([2]; 1: YES, 0: NO): 1 (1: YES)
- % inhibition, Replicate A [2]: 37.82%
- % inhibition, Replicate B [2]: 76.50%
- IC50 [2, 6]: 1840 nM
- IC50 [2, 4]: 1840 nM

Compound: Cc1nc2c(c([O-])c1Cl)-c1ccc(Oc3cccc(C(F)(F)F)c3)cc1C2=O.[Na+] [TCMDC-136021]
- IC50 [1]: 54 nM
- IC50 (HepG2 cells): 39800 nM
- Unified cytotox (HepG2 cells; [7]): 39.81 µM
- Is compound selective in assay? Pb ODA active? ([2]; 1: YES, 0: NO): 1 (1: YES)
- % inhibition, Replicate A [2]: 94.15%
- % inhibition, Replicate B [2]: 74.80%
- IC50 [2, 6]: 780 nM
- IC50 [2, 4]: 785 nM

Compound: COc1ccc2nccc([C@@H](O)CN3C4CCC3CC(NCc3ccc5c(n3)NC(=O)CS5)C4)c2n1.Cl (stereo partly shown) [TCMDC-134697]
- IC50 [1]: 1060 nM
- HepG2 cytoxicity (Pb ODA, this manuscript) (HepG2 cells): 38.90 µM
- Unified cytotox (HepG2 cells; [5]): 38.90 µM
- IC50 (HepG2 cells): 38900 nM
- Is compound selective in assay? Pb ODA active? ([2]; 1: YES, 0: NO): 0 (0: NO)
- % inhibition, Replicate A [2]: 46.01%
- % inhibition, Replicate B [2]: 53.20%
- IC50 [2, 4]: 4000 nM

Compound: COc1ccc2ncc(Cl)c(CCN3CCC(NCc4ccc5c(n4)NC(=O)CS5)CC3)c2c1.Cl [TCMDC-141807]
- IC50 [1]: 379 nM
- HepG2 cytoxicity (Pb ODA, this manuscript) (HepG2 cells): 15.49 µM
- Unified cytotox (HepG2 cells; [5]): 15.49 µM
- IC50 (HepG2 cells): 15500 nM
- Is compound selective in assay? Pb ODA active? ([2]; 1: YES, 0: NO): 1 (1: YES)
- % inhibition, Replicate A [2]: 68.31%
- % inhibition, Replicate B [2]: 67.95%
- IC50 [2, 6]: 1340 nM
- IC50 [2, 4]: 1340 nM

Compound: Br.Cc1ccc(OCCCON2C(=N)N=C(N)NC2(C)C)cc1C [TCMDC-131650]
- IC50 [1]: < 0.2 nM
- Pb ODA (this manuscript) HepG2 cytoxicity (HepG2 cells): 0.001 µM
- IC50 (HepG2 cells): 1 nM
- Is compound selective in assay? Pb ODA active? [2]: 0 (key: 1: YES; 0: NO)
- % inhibition, Replicate A [2]: 43.37%
- % inhibition, Replicate B [2]: 66.90%
- IC50 [2, 3]: 4960 nM
- IC50 [2, 4]: 4960 nM

Compound: Cc1[nH]c(C)c(-c2ccc(CCc3ccc(N)cc3)cc2)c(=O)c1Cl [TCMDC-135678]
- IC50 [1]: 279 nM
- Unified cytotox (HepG2 cells; [5]): 100.00 µM
- IC50 (HepG2 cells): 100000 nM
- Is compound selective in assay? Pb ODA active? ([2]; 1: YES, 0: NO): 1 (1: YES)
- % inhibition, Replicate A [2]: 46.90%
- % inhibition, Replicate B [2]: 71.02%
- IC50 [2, 6]: 1090 nM
- IC50 [2, 4]: 1090 nM

Compound: CC[C@@]1(O)C(=O)OCc2c1cc1n(c2=O)Cc2c-1nc1cc3c(cc1c2CN1CCN(C)CC1)OCCO3.Cl [TCMDC-131875]
- IC50 [1]: 204 nM
- IC50 (HepG2 cells): 1260 nM
- Unified cytotox (HepG2 cells; [7]): 1.26 µM
- Is compound selective in assay? Pb ODA active? ([2]; 1: YES, 0: NO): 0 (0: NO)
- % inhibition, Replicate A [2]: 61.11%
- % inhibition, Replicate B [2]: 69.44%
- IC50 [2, 6]: 2370 nM
- IC50 [2, 4]: 2370 nM

Source: paper PMC6753678, “Fueling Open Innovation for Malaria Transmission-Blocking Drugs: Hundreds of Molecules Targeting Early Parasite Mosquito Stages” (Frontiers in Microbiology, 2019)
